# From the supplement of paper PMC12698765
# ± gives the standard deviation of the averaged measurements.
# Assays:
# [1] = test system: 409B2 hiPSC (iCRISPR Cas9, FRMD7 editing); assay: cell survival relative to solvent control (fold (ratio to mock)); higher = more surviving cells
# Procedure: (§1)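 Subset screen of 55 drugs tested at 5 concentrations around the effective screening dose, in 409B2 iCRISPR Cas9 hiPSCs editing FRMD7 with a ssDNA donor. Drugs were applied for 24 h. Viability was read by resazurin and editing outcomes by amplicon sequencing (HDR, NHEJ <2 bp microhomology, MMEJ ≥2 bp microhomology). Values are relative to solvent mock controls; two biological replicates.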
# [2] = test system: 409B2 hiPSC (iCRISPR Cas9, FRMD7 editing); assay: NHEJ-attributed indel frequency relative to solvent control (fold (ratio to mock)); higher = more NHEJ outcomes
# Procedure: as §1
# [3] = test system: 409B2 hiPSC (iCRISPR Cas9, FRMD7 editing); assay: MMEJ-attributed deletion frequency relative to solvent control (fold (ratio to mock)); higher = more MMEJ outcomes
# Procedure: as §1
# [4] = test system: 409B2 hiPSC (iCRISPR Cas9, FRMD7 editing); assay: HDR (precise edit) frequency relative to solvent control (fold (ratio to mock)); higher = more homology-directed repair outcomes
# Procedure: as §1
compound,measurement,setting,value
CC[C@@]1(O)C(=O)OCc2c1cc1n(c2=O)Cc2cc3c(CN(C)C)c(O)ccc3nc2-1 [Topotecan] (in DMSO),cell survival,[1]; 2 nM,0.777
same,cell survival,[1]; 5 nM,0.814
same,cell survival,[1]; 10 nM,0.361
same,cell survival,[1]; 20 nM,0.0825
same,cell survival,[1]; 50 nM,0.0185
same,NHEJ-attributed indel frequency,[2]; 2 nM,0.951 ± 0.029
same,NHEJ-attributed indel frequency,[2]; 5 nM,0.936 ± 0.04
same,NHEJ-attributed indel frequency,[2]; 10 nM,0.896 ± 0.032
same,NHEJ-attributed indel frequency,[2]; 20 nM,0.68 ± 0.029
same,NHEJ-attributed indel frequency,[2]; 50 nM,0.625 ± 0.023
same,MMEJ-attributed deletion frequency,[3]; 2 nM,1.13 ± 0.065
same,MMEJ-attributed deletion frequency,[3]; 5 nM,1.04 ± 0.1
same,MMEJ-attributed deletion frequency,[3]; 10 nM,0.835 ± 0.1
same,MMEJ-attributed deletion frequency,[3]; 20 nM,0.595 ± 0.26
same,MMEJ-attributed deletion frequency,[3]; 50 nM,0.699 ± 0.15
same,HDR,[4]; 2 nM,1.11 ± 0.042
same,HDR,[4]; 5 nM,1.07 ± 0.049
same,HDR,[4]; 10 nM,0.938 ± 0.035
same,HDR,[4]; 20 nM,0.975 ± 0.16
same,HDR,[4]; 50 nM,0.321 ± 0.15
CC(=O)c1c(C)c2cnc(Nc3ccc(N4CCNCC4)cn3)nc2n(C2CCCC2)c1=O (in DMSO),cell survival,[1]; 2000 nM,0.475
same,cell survival,[1]; 5000 nM,0.185
same,cell survival,[1]; 10000 nM,0.0327
same,cell survival,[1]; 20000 nM,-0.0205
same,cell survival,[1]; 50000 nM,0.00851
same,NHEJ-attributed indel frequency,[2]; 2000 nM,0.989 ± 0.048
same,NHEJ-attributed indel frequency,[2]; 5000 nM,0.993 ± 0.073
same,NHEJ-attributed indel frequency,[2]; 10000 nM,0.46 ± 0.24
same,NHEJ-attributed indel frequency,[2]; 20000 nM,0.127 ± 0.018
same,NHEJ-attributed indel frequency,[2]; 50000 nM,0.12 ± 0.036
same,MMEJ-attributed deletion frequency,[3]; 2000 nM,0.907 ± 0.03
same,MMEJ-attributed deletion frequency,[3]; 5000 nM,1.19 ± 0.17
same,MMEJ-attributed deletion frequency,[3]; 10000 nM,0.73 ± 0.046
same,MMEJ-attributed deletion frequency,[3]; 20000 nM,0.458 ± 0.082
same,MMEJ-attributed deletion frequency,[3]; 50000 nM,0.244 ± 0.076
same,HDR,[4]; 2000 nM,1.01 ± 0.011
same,HDR,[4]; 5000 nM,0.587 ± 0.11
same,HDR,[4]; 10000 nM,0.152 ± 0.029
same,HDR,[4]; 20000 nM,0.0501 ± 0.0028
same,HDR,[4]; 50000 nM,0.0996 ± 0.032
CCN1CCC[C@H]1CNC(=O)c1cc(S(N)(=O)=O)ccc1OC [Levosulpiride] (in DMSO),cell survival,[1]; 2000 nM,1.06
same,cell survival,[1]; 5000 nM,1.32
same,cell survival,[1]; 10000 nM,1.26
same,cell survival,[1]; 20000 nM,1.18
same,cell survival,[1]; 50000 nM,1.33
same,NHEJ-attributed indel frequency,[2]; 2000 nM,0.98 ± 0.013
same,NHEJ-attributed indel frequency,[2]; 5000 nM,0.9952 ± 0.0031
same,NHEJ-attributed indel frequency,[2]; 10000 nM,0.9818 ± 0.0064
same,NHEJ-attributed indel frequency,[2]; 20000 nM,1 ± 0.012
same,NHEJ-attributed indel frequency,[2]; 50000 nM,0.978 ± 0.038
same,MMEJ-attributed deletion frequency,[3]; 2000 nM,1.07 ± 0.1
same,MMEJ-attributed deletion frequency,[3]; 5000 nM,1.06 ± 0.0093
same,MMEJ-attributed deletion frequency,[3]; 10000 nM,0.994 ± 0.19
same,MMEJ-attributed deletion frequency,[3]; 20000 nM,1 ± 0.04
same,MMEJ-attributed deletion frequency,[3]; 50000 nM,1 ± 0.04
same,HDR,[4]; 2000 nM,1.05 ± 0.047
same,HDR,[4]; 5000 nM,1.07 ± 0.081
same,HDR,[4]; 10000 nM,1.13 ± 0.019
same,HDR,[4]; 20000 nM,1.06 ± 0.13
same,HDR,[4]; 50000 nM,1.09 ± 0.081
CC[C@@]1(O)C(=O)OCc2c1cc1n(c2=O)Cc2cc3cc(O)ccc3nc2-1 [10-Hydroxycamptothecin] (in DMSO),cell survival,[1]; 20 nM,0.0133
same,cell survival,[1]; 50 nM,-0.00908
same,cell survival,[1]; 100 nM,-0.00864
same,cell survival,[1]; 200 nM,-0.0102
same,cell survival,[1]; 500 nM,-0.000182
same,NHEJ-attributed indel frequency,[2]; 20 nM,0.393 ± 0.053
same,NHEJ-attributed indel frequency,[2]; 50 nM,0.378 ± 0.0062
same,NHEJ-attributed indel frequency,[2]; 100 nM,0.333 ± 0.045
same,NHEJ-attributed indel frequency,[2]; 200 nM,0.267 ± 0.025
same,NHEJ-attributed indel frequency,[2]; 500 nM,0.208 ± 0.021
same,MMEJ-attributed deletion frequency,[3]; 20 nM,0.686 ± 0.039
same,MMEJ-attributed deletion frequency,[3]; 50 nM,0.286 ± 0.059
same,MMEJ-attributed deletion frequency,[3]; 100 nM,0.389 ± 0.0056
same,MMEJ-attributed deletion frequency,[3]; 200 nM,0.546 ± 0.05
same,MMEJ-attributed deletion frequency,[3]; 500 nM,0.474 ± 0.22
same,HDR,[4]; 20 nM,0.141 ± 0.075
same,HDR,[4]; 50 nM,0.115 ± 0.032
same,HDR,[4]; 100 nM,0.106 ± 0.03
same,HDR,[4]; 200 nM,0.0697 ± 0.015
same,HDR,[4]; 500 nM,0.109 ± 0.033
CCN1CCN(Cc2ccc(Nc3ncc(F)c(-c4cc(F)c5nc(C)n(C(C)C)c5c4)n3)nc2)CC1 (in EtOH),cell survival,[1]; 2000 nM,0.514
same,cell survival,[1]; 5000 nM,-0.00651
same,cell survival,[1]; 10000 nM,-0.00445
same,cell survival,[1]; 20000 nM,-0.00662
same,cell survival,[1]; 50000 nM,-0.00233
same,NHEJ-attributed indel frequency,[2]; 2000 nM,0.504 ± 0.61
same,NHEJ-attributed indel frequency,[2]; 5000 nM,0.11 ± 0.075
same,NHEJ-attributed indel frequency,[2]; 10000 nM,0.157 ± 0.018
same,NHEJ-attributed indel frequency,[2]; 20000 nM,0.0938 ± 0.058
same,NHEJ-attributed indel frequency,[2]; 50000 nM,0.0987 ± 0.029
same,MMEJ-attributed deletion frequency,[3]; 2000 nM,0.565 ± 0.58
same,MMEJ-attributed deletion frequency,[3]; 5000 nM,0.159 ± 0.15
same,MMEJ-attributed deletion frequency,[3]; 10000 nM,0.229 ± 0.044
same,MMEJ-attributed deletion frequency,[3]; 20000 nM,0.109 ± 0.062
same,MMEJ-attributed deletion frequency,[3]; 50000 nM,0.0743 ± 0.0014
same,HDR,[4]; 2000 nM,0.589 ± 0.76
same,HDR,[4]; 5000 nM,0.0594 ± 0.017
same,HDR,[4]; 10000 nM,0.0558 ± 0.0014
same,HDR,[4]; 20000 nM,0.0719 ± 0.015
same,HDR,[4]; 50000 nM,0.0788 ± 0.0049
CS(=O)(=O)N1CCN(Cc2cc3nc(-c4cccc5[nH]ncc45)nc(N4CCOCC4)c3s2)CC1 [GDC-0941] (in DMSO),cell survival,[1]; 20 nM,0.924
same,cell survival,[1]; 50 nM,0.877
same,cell survival,[1]; 100 nM,0.7
same,cell survival,[1]; 200 nM,0.444
same,cell survival,[1]; 500 nM,0.15
same,NHEJ-attributed indel frequency,[2]; 20 nM,0.978 ± 0.0067
same,NHEJ-attributed indel frequency,[2]; 50 nM,0.99142 ± 0.00057
same,NHEJ-attributed indel frequency,[2]; 100 nM,0.945 ± 0.042
same,NHEJ-attributed indel frequency,[2]; 200 nM,0.94 ± 0.041
same,NHEJ-attributed indel frequency,[2]; 500 nM,0.86 ± 0.063
same,MMEJ-attributed deletion frequency,[3]; 20 nM,1.02 ± 0.14
same,MMEJ-attributed deletion frequency,[3]; 50 nM,0.875 ± 0.054
same,MMEJ-attributed deletion frequency,[3]; 100 nM,0.874 ± 0.016
same,MMEJ-attributed deletion frequency,[3]; 200 nM,0.926 ± 0.2
same,MMEJ-attributed deletion frequency,[3]; 500 nM,0.887 ± 0.078
same,HDR,[4]; 20 nM,1.15 ± 0.048
same,HDR,[4]; 50 nM,1.08 ± 0.0031
same,HDR,[4]; 100 nM,1.08 ± 0.075
same,HDR,[4]; 200 nM,1.14 ± 0.076
same,HDR,[4]; 500 nM,1.06 ± 0.19
CC(=O)O[C@]1(C(C)=O)CC[C@H]2[C@@H]3C=C(C)C4=CC(=O)CC[C@]4(C)[C@H]3CC[C@@]21C [Megestrol Acetate] (in EtOH),cell survival,[1]; 20 nM,1.6
same,cell survival,[1]; 50 nM,1.46
same,cell survival,[1]; 100 nM,1.18
same,cell survival,[1]; 200 nM,1.12
same,cell survival,[1]; 500 nM,1.05
same,NHEJ-attributed indel frequency,[2]; 20 nM,0.999 ± 0.028
same,NHEJ-attributed indel frequency,[2]; 50 nM,1.004 ± 0.007
same,NHEJ-attributed indel frequency,[2]; 100 nM,1.03 ± 0.037
same,NHEJ-attributed indel frequency,[2]; 200 nM,1 ± 0.045
same,NHEJ-attributed indel frequency,[2]; 500 nM,1.02 ± 0.032
same,MMEJ-attributed deletion frequency,[3]; 20 nM,1.01 ± 0.013
same,MMEJ-attributed deletion frequency,[3]; 50 nM,1.16 ± 0.079
same,MMEJ-attributed deletion frequency,[3]; 100 nM,0.9716 ± 0.0036
same,MMEJ-attributed deletion frequency,[3]; 200 nM,1.1 ± 0.091
same,MMEJ-attributed deletion frequency,[3]; 500 nM,0.9348 ± 0.0058
same,HDR,[4]; 20 nM,0.975 ± 0.027
same,HDR,[4]; 50 nM,0.93 ± 0.072
same,HDR,[4]; 100 nM,0.95 ± 0.068
same,HDR,[4]; 200 nM,0.953 ± 0.015
same,HDR,[4]; 500 nM,0.96 ± 0.028
